15 molecules from patent US11718612B2, “Inhibitors of receptor interacting protein kinase I for the treatment of disease” (Board of Regents, The University of Texas System, priority 2019, dated 2023) can be followed below.

In this assay the test system is U937 cells. Nature of the assay: Human U937 cellular necroptosis assay. The note with it: U-937; U937 cells stimulated with 25 ng/mL human TNFalpha and 25 μM z-VAD-FMK; 22 hr; Cell Titer-Glo viability. The assay is classed as cell-based. As to the method: Human U937 Cellular Necroptosis Assay
The human monocytic cell line U937 (CRL-1593.2) may be purchased from ATCC. The cells are routinely maintained in RPMI-1640 Medium (Gibco, Catalog #11875-093) supplemented with 10% heat inactivated fetal bovine serum (Gibco, Catalog #16140-071), 100 units/mL penicillin and 100 μg/mL streptomycin (Gibco, Catalog #15140-122), in a humidified incubator (37° C., 5% CO2). For the assay, cells are resuspended in RPMI-1640 phenol red free Media (Gibco, Catalog #11835-030) supplemented with 10% fetal bovine serum (Sigma, Catalog #F2442), 100 units/mL penicillin and 100 ug/mL streptomycin. […] Stock solutions of the test compounds are prepared in 100% DMSO (Sigma, Catalog #D2650) and serially diluted 1:3 using 100% DMSO. Compounds are additionally diluted 1:40 in assay medium, and 10 μL/well was transferred to the plate. Following the compound addition, the plate is incubated at 37° C. and 5% CO2 for 22 hr. After 22 hr, viability is assessed with the addition of 20 μL of Cell Titer-Glo 2.0 (Promega, Catalog #G9243). The tissue culture plate is shaken on an orbital shaker at 300 RPM for 15 minutes at room temperature in the dark. Luminescence is measured using a PerkinElmer Envision™ plate reader. IC50 values are calculated using a four-parameter logistic curve fit using Genedata Screener software.

As to `C[C@H](c1cccc(F)c1F)n1nc2c(c1Cl)CCN(c1cccc(Cl)c1F)C2=O` (single isomer, unassigned) [Example 55a], the IC50 was more than 10000 nM.

As to `C[C@@H](c1cccc(F)c1F)n1nc2c(c1Cl)CCN(c1cccc(Cl)c1F)C2=O` (single isomer, unassigned) [Example 55b], it took 6390 nM to reach half-maximal inhibition (IC50).

As to `C[C@@H](c1cccc(C#N)c1)n1cnc(C(=O)Nc2cccc(Cl)c2F)n1` (single isomer, unassigned) [Example 56b], the IC50 was more than 10000 nM.

`O=C1c2nn(Cc3cccc(F)c3F)c(Cl)c2CCN1c1cccc(Cl)c1F` [Example 1, 3-chloro-6-(3-chloro-2-fluoro-phenyl)-2-[(2,3-difluorophenyl)methyl]-4,5-dihydropyrazolo[3,4-c]pyridin-7-one]: it took 34.2 nM to reach half-maximal inhibition (IC50).

On to `CC(c1cccc(F)c1F)n1nc2c(c1Cl)CCN(c1cccc(Cl)c1F)C2=O` (stereo not drawn) [Example 55, 3-chloro-6-(3-chloro-2-fluorophenyl)-2-(1-(2,3-difluorophenyl)ethyl)-2,4,5,6-tetrahydro-7H-pyrazolo[3,4-c]pyridin-7-one], for which the IC50 was more than 10000 nM.

`CC(c1cccc(C#N)c1)n1cnc(C(=O)Nc2cccc(Cl)c2F)n1` (stereo not drawn) [Example 56, N-(3-chloro-2-fluorophenyl)-1-(1-(3-cyanophenyl)ethyl)-1H-1,2,4-triazole-3-carboxamide] returned an IC50 of 1510 nM.

The molecule `N#Cc1cccc(Cn2nc3c(c2Cl)CCN(c2cccc(Cl)c2F)C3=O)c1` [Example 58, 3-((3-Chloro-6-(3-chloro-2-fluorophenyl)-7-oxo-4,5,6,7-tetrahydro-2H-pyrazolo[3,4-c]pyridin-2-yl)methyl)benzonitrile] returned an IC50 of 95.9 nM.

The molecule `N#Cc1cccc(Cn2cc3c(n2)C(=O)N(c2cccc(Cl)c2F)CC3)c1` [Example 59, 3-((6-(3-chloro-2-fluorophenyl)-7-oxo-4,5,6,7-tetrahydro-2H-pyrazolo[3,4-c]pyridin-2-yl)methyl)benzonitrile] displayed an IC50 of 811 nM.

In the case of `Nc1c2c(nn1Cc1ccccc1)C(=O)N(c1cccc(Cl)c1F)CC2` [Example 60, 3-amino-2-benzyl-6-(3-chloro-2-fluorophenyl)-2,4,5,6-tetrahydro-7H-pyrazolo[3,4-c]pyridin-7-one], half-maximal inhibition (IC50) required 1260 nM.

As for `O=C1c2nn(Cc3ccccc3)c(Br)c2CCN1c1cccc(Cl)c1F` [Example 61, 2-benzyl-3-bromo-6-(3-chloro-2-fluorophenyl)-2,4,5,6-tetrahydro-7H-pyrazolo[3,4-c]pyridin-7-one], half-maximal inhibition (IC50) was put at 44.6 nM.

`O=C1c2nn(Cc3cnccn3)c(Cl)c2CCN1c1cccc(Cl)c1F` [Example 62, 3-chloro-6-(3-chloro-2-fluorophenyl)-2-(pyrazin-2-yl-methyl)-2,4,5,6-tetrahydro-7H-pyrazolo[3,4-c]pyridin-7-one] had an IC50 of 53.7 nM.

Molecule `O=C1c2nn(Cc3ncccc3F)c(Cl)c2CCN1c1cccc(Cl)c1F` [Example 63, 3-chloro-6-(3-chloro-2-fluorophenyl)-2-((3-fluoropyridin-2-yl)methyl)-2,4,5,6-tetrahydro-7H-pyrazolo[3,4-c]pyridin-7-one] returned an IC50 of 64.1 nM.

In turn, `O=C1c2nn(Cc3ncccc3Cl)c(Cl)c2CCN1c1cccc(Cl)c1F` [Example 64, 3-chloro-6-(3-chloro-2-fluorophenyl)-2-((3-chloropyridin-2-yl)methyl)-2,4,5,6-tetrahydro-7H-pyrazolo[3,4-c]pyridin-7-one] returned an IC50 of 130 nM.

With `Cc1ccc(Cn2nc3c(c2Cl)CCN(c2cccc(Cl)c2F)C3=O)cc1` [Example 65, 3-chloro-6-(3-chloro-2-fluorophenyl)-2-(4-methylbenzyl)-2,4,5,6-tetrahydro-7H-pyrazolo[3,4-c]pyridin-7-one], the IC50 worked out at 207 nM.

With `O=C1c2nn(Cc3ccc(F)cc3)c(Cl)c2CCN1c1cccc(Cl)c1F` [Example 66, 3-chloro-6-(3-chloro-2-fluorophenyl)-2-(4-fluorobenzyl)-2,4,5,6-tetrahydro-7H-pyrazolo[3,4-c]pyridin-7-one], the IC50 was found to be 291 nM.
